Test results: patent US20240426807A1, “SCREENING SYSTEM” (Givaudan SA, priority 2021, published 2024)
Entries after “also recorded” stand apart in the source; their conditions may differ.

How the values were obtained:
[1] = biological target: T1, OR5AN1 (Homo sapiens, UniProt Q8NGI8); experiment: Ligand-induced blasticidin resistance, OR5AN1 cells (pGL4.29-CRE-BLAST-OR); assay type: cell-based
T1 construct: expressed in transfected cells
T1 sequence (Q8NGI8 1-311): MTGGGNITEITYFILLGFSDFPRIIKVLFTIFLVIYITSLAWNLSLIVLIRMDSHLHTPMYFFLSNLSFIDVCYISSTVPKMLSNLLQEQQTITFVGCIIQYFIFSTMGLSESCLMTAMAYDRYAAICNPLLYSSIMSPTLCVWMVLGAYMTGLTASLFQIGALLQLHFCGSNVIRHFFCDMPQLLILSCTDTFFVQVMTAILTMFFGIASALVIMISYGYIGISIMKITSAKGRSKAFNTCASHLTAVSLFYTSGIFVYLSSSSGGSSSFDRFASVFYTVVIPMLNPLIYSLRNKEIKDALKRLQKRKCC
Description: To generate a vector allowing positive selection of cell clones with a functional expression of a specific OR gene, a blasticidin resistance gene was placed downstream of SEQ ID NO: 4. The pGL4.29-CRE-Puro-OR vector generated as described in Example 1 was digested with BgIII and FseI to remove the comprised basal promoter and the complete puromycin resistance gene. The removed basal promoter sequence was amplified with the primers […] (SEQ ID NO: 28), […] (SEQ ID NO: 63), and the blasticidin S deaminase (bsd, SEQ ID NO: 64) encoding sequence was amplified by PCR using the primers […] (SEQ ID NO: 66) […] (SEQ ID NO: 67). The two overlapping PCR products were joined by fusion PCR using primers […] (SEQ ID NO: 28) and […] (SEQ ID NO: 68). The resulting DNA fragment was digested with BgIII/FseI and ligated into the digested vector to generate pGL4.29-CRE-Blast-OR.
This vector was used to generate stable cell lines as described in Example 1.
Stable clones containing a stable insertion of the pGL4.29-CRE-BLAST-OR construct with the receptor OR5AN1 (NCBI Genbank Gene ID: 390195) were then plated at a density of 3000 cells/per well in 100 μl Dubelcco's Modified Eagle medium (DMEM) in polyethyleneimide-coated, white 96 well microtiter plates with a transparent bottom. After cells were allowed to adhere for 24 h, 50 μl of medium containing different odorants (musk ketone or ethyl vanillin at 40 μM) was added to each well resulting in an odorant concentration of 13.3 μM. 6 h after odorant addition, 50 μl of medium containing blasticidin was added to reach a final concentration of 0.5-256 μg/ml in 10 two-fold dilution steps (day 1 of selection). This step further diluted the odorant to 10 μM. On day 4 of the selection (72 h after blasticidin addition), medium from each well was removed completely, 100 μl PrestoBlue® cell viability reagent (ThermoFisher Scientific, Catalog No: 14200-083) diluted in phosphate buffered saline containing 1 mg/ml glucose was added to each well and cells were incubated at 37° C. until a color change was visible in the wells containing no blasticidin. The fluorescence was determined at 560 excitation and 590 nm emission to assess relative cell metabolic activity, which is the net result of cell growth and cell killing in presence of the different blasticidin concentrations. The result was expressed as % viability relative to controls with no cells (0%) and cells treated with olfactory ligand only (100%).

[2] = biological target: T2, pool of cells with OR5A1, OR5A2, OR5AN1, OR6Y1, OR10G4, OR10G7 or OR10G9 (Homo sapiens, UniProt Q8NGI8); experiment: Selection of cognate-receptor cells from a pool of OR-expressing cells with the target ligand and puromycin; assay type: cell-based; settings: 10 μM musk ketone, puromycin 1 μg/ml, pool of 7 OR transfections
T2 construct: expressed in transfected cells; host or cells: HEK293T stably expressing RTP1S and RTP2; 7 separate transfections pooled
T2 sequence (Q8NGI8 1-311): T1 sequence (Q8NGI8 1-311)
Method: For many ligands the cognate OR receptors are not known (“orphan receptors”), or it is unknown among a pool of receptors, which one has the best affinity for a ligand of interest, e.g. a perfumery note of particular interest. Thus, the ligand-induced selection pressure can be used to enrich a specific OR-expressing cell from a pool of OR-expressing cells in the presence of a ligand of interest. HEK293T cells stably expressing RTP1S and RTP2 were seeded into 7 wells of 6-well plates at 330,000 cells/well.
The next day, the cells of each well were transfected with 2 μg of a PvuI-linearized pGL4.29-CRE-Puro-Hygro-OR construct harboring one of the receptors OR5A1 (NCBI Genbank Gene ID: 219982), OR5A2 (NCBI Genbank Gene ID: 219981), OR5AN1 NCBI Genbank Gene ID: 390195, SEQ ID NO: 70), OR6Y1 (NCBI Genbank Gene ID: 391112), OR10G4 (NCBI Genbank Gene ID: 390264, SEQ ID NO: 72), OR10G7 (NCBI Genbank Gene ID: 390265, SEQ ID NO: 71), or OR10G9 (NCBI Genbank Gene ID: 219870). 24 h after transfection, the cells of all 7 transfections were harvested and pooled. 350 cells of this pool of cells with different OR genes inserted were then seeded into each well of seven 96-well plates.
3 days later, cells were stimulated with ligands for either OR5AN1 (10 μM musk ketone), OR10G7 (1 μM eugenol), or OR10G4 (100 μM vanitrope). One plate was treated with DMSO only. 6h after the addition of the OR ligands, puromycin was added to each plate at a final concentration of 1 μg/ml. On every day during the following week, the medium on all plates was replaced with fresh medium containing the corresponding ligand and puromycin. The plates were then searched for wells containing only a single colony of puromycin-resistant cells. The cells of those colonies were transferred to larger plates and grown until they had multiplied to about 8 Mio cells. The genomic DNA of 2 Mio cells of each clone were isolated using the Puregene kit according to the manufacturer's protocol. […]

CC(=O)c1c(C)c([N+](=O)[O-])c(C(C)(C)C)c([N+](=O)[O-])c1C [musk ketone]
blasticidin resistance in presence of odorant versus solvent control ([1]; HEK293T OR5AN1, odorant 10 μM, blasticidin 0.5-256 μg/ml, PrestoBlue viability day 4): increased resistance to blasticidin; also recorded: Enhanced blasticidin resistance
difference in viability with versus without ligand ([1]; blasticidin at 32 μM (so in the source)): ~10 fold
surviving cells (viability) in presence of ligand ([1]; blasticidin at 32 μM (so in the source), odorant 10 μM, relative to no cells (0%) and ligand only (100%)): 75%
increase of blasticidin concentration reducing viability by 50% (EC50) in presence of ligand ([1]; versus absence of ligand): > 50 fold
clones selected with the ligand that contained OR5AN1 [2]: 9 clones
